Reference: patent US20080287490A1, “Bis-pyridino containing compounds for the use in the treatment of CNS pathologies” (UNIVERSITY OF KENTUCKY RESEARCH FOUNDATION, priority 2005, published 2008)
Read-outs that look alike come from different tables or passages of the source.

What was measured:
[1] = molecular target: blood-brain barrier choline transporter; type: in vivo, rat
Procedure: Blood-brain barrier choline transporter affinity assays. Quaternary ammonium analogs were evaluated for their ability to inhibit [^3H]-choline uptake into brain providing an indication of the ability of these analogs to interact with the choline transporter. These assays were conducted using the in situ rat brain perfusion method of Takasato, et al., Am. J. Physiol. 1984, 247, 484, as modified by Allen and Smith, J. Neurochem., 2001, 76, 1032. […] Ki values were compared by ANOVA followed by Bonferoni's multiple comparisons test to determine if an analog inhibits [^3H]-choline uptake.
Analog affinity for, and transport by, the blood-brain barrier choline transporter.

[2] = system: nAChR subtypes mediating nicotine-evoked DA release; test: Analog-evoked [^3H]DA overflow (intrinsic activity) from superfused striatal slices; type: cell-based, rat
[3] = system: nAChR subtypes mediating nicotine-evoked [^3H]-dopamine overflow
Procedure: [^3H]-Dopamine overflow from superfused striatal slices. […] Striatal coronal slices (500 μm, 4-6 mg) were obtained and incubated for 30 minutes in Krebs' buffer (in mM: 118 NaCl, 4.7 KCl, 1.2 MgCl2, 1 NaH2PO4, 1.3 CaCl2, 11.1 glucose, 25 NaHCO3, 0.11 L-ascorbic acid and 0.004 disodium EDTA, pH 7.4, saturated with 95% O2/5% CO2) in a metabolic shaker at 34° C. Slices were incubated with 0.1 μM (final concentration) of [^3H]-dopamine during the latter 30 minutes of the 60-minute incubation period. Each slice was transferred to a glass superfusion chamber maintained at 34° C. and superfused (1 ml/min) with Krebs' buffer containing nomifensine (10 μM) and pargyline (10 μM) to inhibit [^3H]-dopamine reuptake after release into the extracellular space, ensuring that [^3H]-overflow primarily represented [^3H]-dopamine. Sample collection (5-minute; 5 mL) began after 60 minutes of superfusion. […] At the end of the experiment, each slice was solubilized, and the [^3H]-content of the tissue determined. Release during each minute was normalized for total tissue [^3H]-content. Analog-induced intrinsic activity and inhibitory activity were determined using slices from the same rat (repeated-measures design).
The amount of [^3H] in each sample was calculated by dividing the total [^3H] collected in each sample by the total in the tissue at the time of sample collection (defined as fractional release). […] Data were analyzed by weighted, least squares regression analysis of the sigmoidal concentration-effect curves to obtain EC50 and IC50 values.
Striatal slices (500 μm, 4-6 mg) were incubated for 30 minutes in Krebs' buffer (in mM: 118 NaCl, 4.7 KCl, 1.2 MgCl2, 1 NaH2PO4, 1.3 CaCl2, 11.1 glucose, 25 NaHCO3, 0.11 L-ascorbic acid and 0.004 disodium EDTA, pH 7.4, saturated with 95% O2/5% CO2) in a metabolic shaker at 34° C. Slices were incubated with 0.1 μM (final concentration) [^3H]DA during the latter 30 minutes of the 60-minute incubation period. Each slice was transferred to a glass superfusion chamber maintained at 34° C. and superfused (1 ml/min) with Krebs' buffer containing nomifensine (10 μM) and pargyline (10 μM) to inhibit [^3H]DA reuptake and metabolism, respectively, after release into the extracellular space, ensuring that [^3H]overflow primarily represents [^3H]DA. Sample collection (5-minute; 5 ml) began after 60 minutes of superfusion. […] Thus, the ability of these analogs to elicit intrinsic activity (evoke [^3H]DA overflow) was determined. At the end of the experiment, each slice was solubilized and [^3H]content of the tissue determined. Release during each minute was normalized for total [^3H]content of the slice. Analog-induced intrinsic activity and inhibitory activity were determined using slices from the same rat (repeated-measures design).
Fractional release was calculated by dividing the total tritium collected in each sample by the total tritium in the tissue at the time of sample collection. […] Typically, data were analyzed by weighted, least squares regression analysis of sigmoidal concentration-effect curves to obtain EC50 and IC50 values.

α7* nAChRs [4] = molecular target: T1, α7* nAChRs (Rattus norvegicus, UniProt Q05941); test: biochemical
Procedure: (§1) Whole brain, excluding cortex and cerebellum, was homogenized in 20 ml of ice-cold buffer, containing (in mM): 2 HEPES, 11.8 NaCl, 0.48 KCl, 0.25 CaCl2 and 0.12 MgSO4, pH 7.5. Homogenate was centrifuged (25,000 g, 15 minutes, 4° C.). Pellets were resuspended in 20 ml of buffer and incubated at 37° C., for ten minutes, cooled to 4° C. and centrifuged (25,000 g, 15 minutes, 4° C.). Pellets were resuspended and centrifuged using the same conditions. Final pellets were stored in assay buffer, containing (in mM): 20 HEPES, 118 NaCl, 4.8 KCl, 2.5 CaCl2, and 1.2 MgSO4) pH 7.5 at −70° C. Upon use, final pellets were resuspended in ˜20 ml assay buffer. […] Control was in the absence of analog. […] Incubations proceeded for 60 minutes at room temperature using 96-well plates and were terminated by harvesting on Unifilter-96 GF/B filter plates presoaked in 0.5% polyethylenimine, using a Packard FilterMate harvester.
(§2) After washing five times with 350 μl ice-cold assay buffer, filter plates were dried (60 minutes, 49° C.), bottom-sealed, and filled with Packard's MicroScint 20 cocktail (40 μl/well). After 60 minutes, filter plates were top-sealed, and radioactivity determined using a Packard TopCount. Protein concentrations were determined using bovine serum albumin as the standard.
(§3) Whole brain was homogenized in 20 ml of ice-cold buffer (in mM: 2 HEPES, 11.8 NaCl, 0.48 KCl, 0.25 CaCl2, and 0.12 MgSO4, pH 7.5). Homogenates were centrifuged (25,000 g, 15 minutes, 4° C.). Pellets were resuspended in 20 ml of buffer and incubated at 37° C., for 10 minutes, cooled to 4° C. and centrifuged (25,000 g, 15 minutes, 4° C.). Pellets were resuspended and centrifuged again using the same conditions. Final pellets were stored at −70° C. in assay buffer (in mM: 20 HEPES, 118 NaCl, 4.8 KCl, 2.5 CaCl2, and 1.2 MgSO4, pH 7.5). Upon use, final pellets were resuspended in ˜20 ml assay buffer. […] Control was in the absence of analog. […] Incubation proceeded for 60 minutes at room temperature using 96-well plates and was terminated by harvesting on Unifilter-96 GF/B filter plates, presoaked in 0.5% polyethylenimine, using a Packard FiterMate harvester. After washing 5× with 350 μl ice-cold assay buffer, filter plates were dried (60 minutes, 49° C.), bottom-sealed, and filled with Packard's MicroScint 20 cocktail (40 μl/well). After 60 minutes, filter plates were top-sealed, and radioactivity determined. Protein concentration was determined using BSA as the standard.

[5] = molecular target: T2, α7-type neuronal nicotinic acetylcholine receptors (Rattus norvegicus, UniProt Q05941); test: biochemical; details: rat brain membranes, 2.5 nM [^3H]-MLA; read-out: Ki, [^3H]MLA binding
T2 construct: Rat brain was dissected into the whole brain tissue without cortex, striatum and cerebellum; from tissue; host or cells: rat brain (without cortex, striatum, cerebellum) membranes

[6] = molecular target: T3, Rat Striatal Nicotinic Acetylcholine Receptors ([^3H]nicotine binding sites) (Rattus norvegicus, UniProt P09483+P12390); test: biochemical; details: rat striatal membranes, 3 nM [^3H]-nicotine; read-out: Ki, specific binding of [^3H]-nicotine
T3 construct: Striata from two rats were dissected, pooled, and homogenized; from tissue; host or cells: rat striatum membranes
Procedure: Striata from two rats were dissected, pooled, and homogenized with a Tekmar polytron in 10 volumes of ice-cold modified Krebs-HEPES buffer (20 mM HEPES, 118 mM NaCl, 4.8 mM KCl, 2.5 mM CaCl2, 1.2 mM MgSO4, adjusted to pH 7.5). The homogenates were incubated at 37° C. for five minutes and centrifuged at 15,000 g for 20 minutes. The pellet was resuspended in ten volumes of ice-cold MilliQ water, incubated for five minutes at 37° C., and centrifuged at 15,000 g for 20 minutes The second pellet was then resuspended in ten volumes of fresh ice-cold 10% Krebs-HEPES buffer, incubated at 37° C., and centrifuged at 15,000 g for 20 minutes. The latter sequence of resuspension, incubation, and centrifugation was repeated. The pellet was frozen under fresh 10% Krebs-HEPES buffer and stored at −40° C. until assay. Upon assay, the pellet was resuspended in the Krebs-HEPES buffer, incubated at 37° C. for five minutes, and centrifuged at 15,000 g for 20 minutes. The final pellet was resuspended in 3.6 ml ice-cold MilliQ water which provided for approximately 200 μg protein per 100 μl aliquot. Competition assays were performed in duplicate in a final volume of 200 μl Krebs-HEPES buffer containing […] Tris buffer (pH 7.5 at 4° C.). […] After a 90 minute incubation at 4° C., reactions were terminated by dilution of the samples with 3 ml of ice-cold Krebs-HEPES buffer followed immediately by filtration through Whatman GF/B glass fiber filters (presoaked in 0.5% polyethyleneimine) using a Brandel Cell Harvester. Filters were rinsed three times with 3 ml of ice-cold Krebs-HEPES buffer, transferred to scintillation vials, and 5 ml scintillation cocktail (Research Products International Corp., Mt. Prospect, Ill.) added. […] Binding parameters were determined using the weighted, least squares non-linear regression.

α4β2* nAChRs = α4β2* nAChRs (Rattus norvegicus, UniProt P09483+P12390); details: for mode of interaction with the high affinity [^3H]-nicotine binding site (Scatchard analyses): no change in Bmax
Procedure: as §1, §2, §3

[7] = system: nAChR mediating nicotine-evoked [^3H]DA release (α3β2* receptor subtype); type: cell-based, rat; details: rat striatal slices, nicotine 10 μM; read-out: IC50, S-(−)-nicotine-evoked [^3H]DA release
Procedure: Slices were rinsed with 15 mL of fresh buffer and incubated for an additional 30 minutes in fresh buffer containing 0.1 μM [^3H]DA (6 slices/3 ml). Subsequently, slices were rinsed with 15 ml of fresh buffer and transferred to a glass superfusion chamber.
Radioactivity in the superfusate and tissue samples was determined by liquid scintillation spectroscopy. […] Basal [^3H]outflow was calculated from the average of the tritium collected in the two five minute samples just before addition of the bis-alkyl pyridino analog. […] [^3H]Overflow was calculated by subtracting the [^3H]outflow during an equivalent period of prestimulation from the values in samples collected during and after drug exposure. Inasmuch as the radiolabelled compounds were not separated and identified, the tritium collected in superfusate is referred to as either [^3H]outflow or [^3H]overflow, rather than as [^3H]DA.

[8] = molecular target: T2, α7-type neuronal nicotinic acetylcholine receptors; type: binding; details: rat brain membranes, […] [^3H]-MLA; read-out: Ki, [^3H]MLA binding
Procedure: Rat brain was dissected into the whole brain tissue without cortex, striatum and cerebellum and was frozen in liquid nitrogen and stored at −70° C. until use.
The brain tissue was homogenized with a Tekmar Polytron (setting 40) in 20 volumes of ice-cold hypotonic buffer (2 mM HEPES, 14.4 mM NaCl, 0.15 mM KCl, 0.2 mM CaCl2 and 0.1 mM MgSO4, pH=7.5). The homogenate was incubated at 37° C. for ten minutes and centrifuged at 25,000×g for 15 minutes at […] The pellet was washed three times more by resuspension in the 20 volumes of the same buffer and centrifugation at the above parameters. The final pellet was stored at −20° C. under 4.6 ml of the incubation buffer and was suspended just before the incubation with radioligand.
[^3H]MLA (25.4 Ci/mmol) was purchased from Tocris Cookson Ltd., Bristol, U.K. Binding was performed in duplicate, in a final volume of 250 μl of the incubation medium, containing 20 mM HEPES, 144 mM NaCl, 1.5 mM KCl, 2 mM CaCl2, 1 mM MgSO4 and 0.05% BSA, pH=7.5. Reaction was initiated by the addition of 100 μl of membrane suspension to the samples containing a desired concentration of test compounds and […] [^3H] MLA (final concentration) and incubated for 2 hours at room temperature. […] The binding reaction was terminated by dilution of samples with 3 ml of ice-cold incubation buffer followed by immediate filtration through presoaked in 0.5% polyethylenimine glass fiber filters (S&S, grade #32) using a Brandel harvester system. Filters were rinsed three times with 3 ml of ice-cold buffer, transferred to scintillation-vials and 4 ml of scintillation cocktail was added. Protein was measured using the Bradford dye-binding procedure with bovine serum albumin as the standard.

α7* nAChRs [9] = molecular target: T1, α7* nAChRs; details: read-out: [^3H]MLA Binding Ki; Table 4; mean (95% confidence interval)
Procedure: as §1, §2, §3

[10] = Table 8, single inhibitor concentration 10 or 250 μM, mean (standard error), read-out: Ki, affinity for the blood brain barrier choline transporter
[11] = read-out: apparent Ki, inhibition of [^3H]-choline uptake into brain
[12] = 500 μM choline in perfusion fluid

Chain of α4β2* nAChRs (P09483 31-630): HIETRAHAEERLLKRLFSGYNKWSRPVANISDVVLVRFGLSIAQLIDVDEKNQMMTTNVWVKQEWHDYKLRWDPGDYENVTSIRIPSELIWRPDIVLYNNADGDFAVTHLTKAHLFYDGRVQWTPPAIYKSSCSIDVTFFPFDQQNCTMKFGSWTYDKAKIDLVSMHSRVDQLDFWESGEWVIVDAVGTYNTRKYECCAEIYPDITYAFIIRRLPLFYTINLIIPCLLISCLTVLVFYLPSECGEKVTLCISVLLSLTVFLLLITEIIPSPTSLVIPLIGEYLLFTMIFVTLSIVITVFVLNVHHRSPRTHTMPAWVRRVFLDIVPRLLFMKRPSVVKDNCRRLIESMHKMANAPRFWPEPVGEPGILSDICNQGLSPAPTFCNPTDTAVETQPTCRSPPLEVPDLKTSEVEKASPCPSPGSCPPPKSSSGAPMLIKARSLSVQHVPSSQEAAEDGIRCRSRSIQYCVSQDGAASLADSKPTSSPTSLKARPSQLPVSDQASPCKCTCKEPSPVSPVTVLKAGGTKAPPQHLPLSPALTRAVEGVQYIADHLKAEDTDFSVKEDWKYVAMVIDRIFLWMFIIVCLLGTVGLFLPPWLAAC
Chain of α4β2* nAChRs (P12390 25-500): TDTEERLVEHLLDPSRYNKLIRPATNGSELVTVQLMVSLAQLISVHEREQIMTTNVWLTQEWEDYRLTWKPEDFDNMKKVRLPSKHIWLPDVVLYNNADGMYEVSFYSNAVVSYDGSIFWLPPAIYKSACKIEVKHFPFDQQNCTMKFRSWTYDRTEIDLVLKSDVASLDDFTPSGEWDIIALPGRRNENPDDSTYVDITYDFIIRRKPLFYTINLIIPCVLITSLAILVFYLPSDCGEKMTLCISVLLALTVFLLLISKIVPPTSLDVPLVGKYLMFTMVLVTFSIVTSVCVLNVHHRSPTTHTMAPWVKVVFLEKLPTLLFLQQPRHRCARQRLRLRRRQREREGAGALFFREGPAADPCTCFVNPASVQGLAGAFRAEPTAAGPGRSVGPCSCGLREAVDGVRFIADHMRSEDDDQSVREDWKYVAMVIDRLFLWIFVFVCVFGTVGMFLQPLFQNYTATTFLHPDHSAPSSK
T2 sequence (Q05941 23-502): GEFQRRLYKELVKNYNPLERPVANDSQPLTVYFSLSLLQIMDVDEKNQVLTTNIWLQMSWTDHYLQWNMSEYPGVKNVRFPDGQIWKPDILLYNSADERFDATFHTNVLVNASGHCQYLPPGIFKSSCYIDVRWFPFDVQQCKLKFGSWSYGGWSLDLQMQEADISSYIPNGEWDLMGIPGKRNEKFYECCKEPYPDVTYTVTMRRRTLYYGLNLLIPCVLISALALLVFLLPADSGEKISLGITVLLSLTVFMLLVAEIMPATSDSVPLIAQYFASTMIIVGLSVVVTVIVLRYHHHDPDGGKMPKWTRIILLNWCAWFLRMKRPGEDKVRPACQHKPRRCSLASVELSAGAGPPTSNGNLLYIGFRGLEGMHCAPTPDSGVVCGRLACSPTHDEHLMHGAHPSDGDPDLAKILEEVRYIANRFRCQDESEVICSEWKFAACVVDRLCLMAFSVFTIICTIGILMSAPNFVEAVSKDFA
T1 sequence (Q05941 23-502): as above
T3 sequence (P09483 31-630): as the sequence (P09483 31-630) above
T3 sequence (P12390 25-500): as the sequence (P12390 25-500) above

SMILES: CCCCCC[N+](C)(C)CCO [N-n-Hexylcholine, reference compound]
- Ki [1, 10]: 2.2 µM

SMILES: CCCCCCCC[N+](C)(C)CCO [N-n-Octylcholine, reference compound]
- Ki [1, 10]: 1.7 µM

SMILES: CCCCCCCC[n+]1ccccc1 [N-n-Octylpyridinium iodide]
- Ki [1, 10]: 32 µM

SMILES: CCCC[n+]1cccc(C2CCCN2C)c1 (stereo not drawn) [NBNI]
- Ki [1, 11]: 777 ± 588 µM

SMILES: CCCCCCCCCCCC[n+]1cccc(C)c1.[I-] [NDDPiI]
- concentration evoking [^3H]DA overflow (intrinsic activity) [2]: ≥ 1.0 µM
- maximal inhibition (Imax) of nicotine-evoked [^3H]DA overflow [3]: 63%
- IC50 ([3]; read-out: IC50, inhibition of nicotine-evoked [^3H]dopamine release/overflow): 0.03 µM

SMILES: CCCCCCCCCC[n+]1cccc(C2CCCN2C)c1 (stereo not drawn) [NDNI]
- Ki (α7* nAChRs [4]): > 100 µM
- Ki [5]: > 100 µM
- Ki [6]: 0.11 µM
- Ki (α4β2* nAChRs; [^3H]Nicotine Binding Ki, Table 4, mean (95% confidence interval)): 0.09 µM
- Ki (α4β2* nAChRs; affinity for [^3H]-nicotine binding sites): ~0.09 µM
- mode of interaction with the high affinity [^3H]-nicotine binding site (Scatchard analyses) (α4β2* nAChRs): competitive manner
- inhibitory activity at the nAChR subtype mediating nicotine-evoked dopamine release [3]: does not exhibit inhibitory activity
- Ki [1, 11]: 27 µM
- IC50 [7]: > 100 µM

SMILES: CN1CCCC1c1ccc[n+](C)c1 (stereo not drawn) [NMNI]
- Ki [1, 11]: > 1000 µM

SMILES: CCCCCCCC[n+]1cccc([C@@H]2CCCN2C)c1.[I-] [NONI]
- mode of interaction with the high affinity [^3H]-nicotine binding site (Scatchard analyses) (α4β2* nAChRs): competitive manner
- Ki [8]: > 100 µM
- mode of interaction with nAChRs mediating nicotine-evoked dopamine release (Schild analysis) [3]: competitive manner
- IC50 ([3]; read-out: Nicotine-evoked [^3H]DA Overflow IC50, Table 4, mean (95% confidence interval)): 0.62 µM
- Ki ([1]; rat, in vivo, read-out: apparent Ki, inhibition of [^3H]-choline uptake into brain): 49 µM
- IC50 [7]: 0.62 µM
- decrease of PA for [^3H]-NONI [12]: ~25%
- permeability-surface area product (PA) for [^3H]-NONI [12]: 1.24±0.5×10^−3 ml/s/g
- uptake (PA) of [^3H]-NONI (5 mM choline in perfusion fluid): 7.55±3.30×10^−4 ml/s/g
- permeability-surface area product (PA) for [^3H]-NONI (no inhibitors present, single time point): 1.64±0.37×10^−3 ml/s/g
- transfer coefficient value (Kin) for [^3H]-NONI uptake (rat brain, 0-60 seconds, absence of unlabeled NONI): 1.59±0.14×10^−3 ml/s/g
- inhibition of [^3H]-NONI brain uptake by unlabeled NONI (unlabeled NONI 250 μM in perfusion fluid, 45 seconds uptake): 46%
- Ki (α7* nAChRs [9]): 12 µM
